Measurements from US20230065462A1, “Pharmaceutical composition and use thereof” (HENAN TAIFENG BIOLOGICAL TECHNOLOGY CO., LTD., priority 2020, published 2023).
Entries after “also recorded” stand apart in the source; their conditions may differ.

Assays:
Assay type in all cases: in vivo, Leghorn chickens
cockscomb [1] = assay: Cockscomb hemangioma model: general (naked eye) observation of cockscomb after drug injection
Excerpt: Animals: 88 Leghorn chickens of clean grade and raised under uniform feeding conditions in the same batch, male, weighing 1000 1500 g, 10 12 weeks old, provided by the Animal Experimental Center of Qinglongshan Animal Breeding Farm in Jiangning, Nanjing. The cockscomb is required to be plump, smooth, ruddy, and no lesion. All animals are reared in the same laboratory according to the requirements of clean grade, and they can eat and drink freely. The experimental process complies with the People's Republic of China “Regulations on the Management of Laboratory Animals” and ethical requirements. Test drugs: each component of the drug composition is commercially available. Citric acid, paeoniflorin, and gallic acid are mixed at the ratio described in the following table to obtain com[…]-I, respectively. Then, each composition was dissolved in water for injection to obtain an injection with a concentration of 13.2 mg/mL. The positive control group used lauromacrogol parenteral solution (Specification: 10 mL: 100 mg, Shaanxi Tianyu Pharmaceutical Co., Ltd.) as a sclerosing agent, and was prepared into a 5 mg/ml injection with water for injection before use. The clean grade of male Leghorn chickens were selected and randomly divided into a blank control group, a positive control group and a pharmaceutical composition groups A-I, a total of 11 groups, each with 8 chickens. Four points were selected for the cockscomb of each cock as the drug injection point, and the cockscomb was observed, photographed, and sampled before the experiment and 3 days, 7 days, 14 days, and 28 days after the experiment. […] As the thickness of the cockscomb was 8 10 mm, only one side of the cockscomb is injected subcutaneously, and the non-injected side of the contralateral side was used as the self-control group. After the injection, the cocks were continued to raise under uniform conditions, eaten and drunk freely until the material was obtained. Before drug injection, the general condition of the cockscomb, including shape, color, thickness, surface condition, etc., were observed and recorded with photos. After the drug injection, the observation was performed every day, and included: the color change of the cockscomb, whether the epidermis has white spots, whether the edema occurs, whether tissue necrosis occurs on the surface, whether scab occurs, whether scar occurs, and whether the scab falls off, and the time distribution of fall off. The observation were recorded by taking photos at four time points, i.e., 3 days, 7 days, 14 days, and 28 days after the drug injection, and meanwhile, the experimental cock was anesthetized and the tissues at the injection site were taken and examined by light microscope.

cockscomb [2] = assay: Cockscomb hemangioma model: HE staining, histopathological changes under light microscope
Excerpt: The clean grade of male Leghorn chickens were selected and randomly divided into a blank control group, a positive control group and a pharmaceutical composition groups A-I, a total of 11 groups, each with 8 chickens. Four points were selected for the cockscomb of each cock as the drug injection point, and the cockscomb was observed, photographed, and sampled before the experiment and 3 days, 7 days, 14 days, and 28 days after the experiment.
(§1) The experimental cocks were anesthetized through intramuscular injection of 0.1 mg/kg Sumianxin, fixed, and cleaned, and after being disinfected, each cockscomb was marked with gentian violet to form 4 circles with a diameter of 1 cm in turn on one side of the each cockscomb from front to back, and was injected at the center of each circle: the blank control group was injected with 0.5 mL of solvent (water for injection), the positive control group was injected with 0.5 mL of 5 mg/ml lauromacrogol injection, and the groups A-I were injected with 0.5 mL of the corresponding 13.2 mg/mL injection of compositions 1-9, respectively, and the standard is that the surface tissue of the cockscomb turns white and produces a skin hill. As the thickness of the cockscomb was 8˜10 mm, only one side of the cockscomb is injected subcutaneously, and the non-injected side of the contralateral side was used as the self-control group. After the injection, the cocks were continued to raise under uniform conditions, eaten and drunk freely until the material was obtained.
(§2) The tissues at the injection site were taken, fixed in 10% neutral formaldehyde fixative for 48 hours, embedded in paraffin, sectioned, stained with conventional HE, and examined by light microscope at 3 days, 7 days, 14 days, and 28 days after drug injection, respectively.

cockscomb capillaries = assay: Cockscomb hemangioma model: number of capillaries (HE staining and computer image analysis); settings: x±s, high-power field
Procedure: as §1, §2
The processed tissue sections were sorted according to the number, and observed through an optical microscope. The changes in the number of blood vessels in each tissue section were observed under the adjusted high-power field of view (DABX400), and the changes in the number of apoptosis were observed by the TUNEL method. Five fields of view were randomly selected under the high-power field of view, and the image was analyzed using Tmage Proplus 6.0 software.
All data were processed with SPSS statistical software, and the data were expressed as x±s.

[3] = system: vascular endothelial cells; assay: Cockscomb hemangioma model: cell apoptosis detection (TUNEL method and computer image analysis); settings: x±s, high-power field
Procedure: as §1
The TUNEL method is used for cell apoptosis detection including cell detection and tissue specimen detection. The principle is that deoxyuridine triphosphate is connected to the 3′-OH end of broken DNA in apoptotic cells by the catalysis of deoxyribonucleotide terminal transferase, and then is also bound to the luciferin antibody linked with horseradish peroxidase, and thus, the apoptotic cells can be accurately positioned through the bond of the luciferin antibody with the horseradish peroxidase substrate diaminobenzidine. […]

Cockscomb edema after drug injection (cockscomb [1]; 0 d): no
Cockscomb appearance after drug injection (cockscomb [1]; 0 d, 0.5 mL subcutaneous injection per point): normal
Cockscomb appearance after drug injection (cockscomb [1]; 3 d): normal
Cockscomb edema after drug injection (cockscomb [1]; 3 d): mild edema
Cockscomb appearance after drug injection (cockscomb [1]; 7 d): normal
Cockscomb edema after drug injection (cockscomb [1]; 7 d): the edema decreased
Cockscomb appearance after drug injection (cockscomb [1]; 14 d): normal
Cockscomb appearance after drug injection (cockscomb [1]; 28 d): normal
Cockscomb edema after drug injection (cockscomb [1]; 28 d): with no edema and with scar
appearance of the cockscomb (cockscomb [1]; throughout the experiment): remained normal
Substance: lauromacrogol [Positive control group]
The color and scab at the cockscomb injection site after drug injection (cockscomb [1]; 0 d): white skin hills
The color and scab at the cockscomb injection site after drug injection (cockscomb [1]; 3 d): dark red
The color and scab at the cockscomb injection site after drug injection (cockscomb [1]; 7 d): light yellow
Cockscomb edema after drug injection (cockscomb [1]; 14 d): the edema gradually decreased; also recorded: faintly edema
The color and scab at the cockscomb injection site after drug injection (cockscomb [1]; 14 d): the center part of the drug injection site had a black scab, the surrounding part was yellow
The color and scab at the cockscomb injection site after drug injection (cockscomb [1]; 28 d): the black scab at the injection site fell off, became light yellow
The internal and external conditions of subcutaneous capillary lumens of cockscomb after drug injection (cockscomb [2]; 3 d): inflammatory cells in the peripheral tissues were infiltrated, interstitial edema was obvious, and a small amount of collagen fibers proliferated
The morphology and number of subcutaneous capillaries of cockscomb after drug injection (cockscomb [2]; 3 d): subcutaneous capillaries were destroyed and fused
The internal and external conditions of subcutaneous capillary lumens of cockscomb after drug injection (cockscomb [2]; 7 d): collagen fibers were further proliferated, and inflammatory cells infiltrated and interstitial edema decreased
The morphology and number of subcutaneous capillaries of cockscomb after drug injection (cockscomb [2]; 7 d): capillaries were further decreased
The internal and external conditions of subcutaneous capillary lumens of cockscomb after drug injection (cockscomb [2]; 14 d): collagen fibers continued to proliferate
The morphology and number of subcutaneous capillaries of cockscomb after drug injection (cockscomb [2]; 14 d): the number of blood vessels continued to decrease
The internal and external conditions of subcutaneous capillary lumens of cockscomb after drug injection (cockscomb [2]; 28 d): filled with a large number of collagen fibers
The morphology and number of subcutaneous capillaries of cockscomb after drug injection (cockscomb [2]; 28 d): the capillaries were significantly reduced
number of capillaries (cockscomb capillaries; 3 d): 47.05 ± 4.12
number of capillaries (cockscomb capillaries; 7 d): 41.89 ± 4.25
number of capillaries (cockscomb capillaries; 14 d): 36.59 ± 3.62
number of capillaries (cockscomb capillaries; 28 d): 24.68 ± 4.33
number of apoptotic cells ([3]; 3 d): 21.02 ± 3.56
number of apoptotic cells ([3]; 7 d): 36.78 ± 3.87
number of apoptotic cells ([3]; 14 d): 54.68 ± 3.65
number of apoptotic cells ([3]; 28 d): 68.62 ± 3.27
